Source: PubChem BioAssay (NCI)
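Each compound was tested at five concentrations against cells in 96-well plates for 48 hours. Abbreviation: GI50, concentration required for 50% inhibition of growth. TGI is the concentration that stops growth completely.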 Where a SMILES comes first, the peptide text is derived from it. [ ]: non-standard residue; d: D form. pGlu = O=C1CC[CH](C(=O)O)N1

What was measured:
Test in all cases: growth of human tumour cells (NCI), 48 h
HL-60(TB) leukemia = tested on: HL-60(TB) leukemia
HS 578T breast = tested on: HS 578T breast
NCI-H23 lung = tested on: NCI-H23 lung
NCI-H460 lung = tested on: NCI-H460 lung
SW-620 colon = tested on: SW-620 colon
UACC-62 melanoma = tested on: UACC-62 melanoma
SN12C renal = tested on: SN12C renal
EKVX NSCLC = tested on: EKVX NSCLC

| SMILES | GI50 (HL-60(TB) leukemia) [µM] | TGI (HL-60(TB) leukemia) [µM] | GI50 (HS 578T breast) [µM] | TGI (HS 578T breast) [µM] | GI50 (NCI-H23 lung) [µM] | TGI (NCI-H23 lung) [µM] | GI50 (NCI-H460 lung) [µM] | TGI (NCI-H460 lung) [µM] | GI50 (SW-620 colon) [µM] | TGI (SW-620 colon) [µM] | GI50 (UACC-62 melanoma) [µM] | TGI (UACC-62 melanoma) [µM] | GI50 (SN12C renal) [µM] | TGI (SN12C renal) [µM] | GI50 (EKVX NSCLC) [µM] | TGI (EKVX NSCLC) [µM] |
| --- | --- | --- | --- | --- | --- | --- | --- | --- | --- | --- | --- | --- | --- | --- | --- | --- |
| O=C(CCCCCCNC(=O)c1cnc(N(c2ccccc2)c2ccccc2)nc1)NO | 3.53 | > 62.3 | 2.54 | > 100 | 3.97 | 38.6 | 2.75 | > 100 | 1.94 | > 29.7 | 1.21 | 4.42 | 3.85 | 62.4 | 4.95 | > 100 |
| C=C(CN1C(=O)CN(C)C1=O)c1ccc(C(=O)Nc2ccccc2N)cc1 | 4.93 | 61.1 | 22.5 | > 100 | 26.8 | > 100 | 15.9 | > 100 | 19.4 | > 100 | 9.31 | 32.3 | 14.1 | 92.4 | 82.3 | > 100 |
| CC(=O)NC1C(OC[C@@H](CC(=O)N[C@@H](CC(=O)O)CC(=O)N[C@H](CC(=O)N[C@@H](CCCN)CC(=O)N[C@@H](CCCN)CC(=O)N[C@H](CC(N)=O)C(C)C)C(C)C)NC(=O)C[C@@H](N)C(C)C)OC(CO)C(O)C1O (some centres not stated) | > 100 | > 100 | > 100 | > 100 | > 100 | > 100 | > 100 | > 100 | > 100 | > 100 | > 100 | > 100 | > 100 | > 100 | > 100 | > 100 |
| C=C1C(=O)O[C@H]2[C@H]1CC/C(COC(=O)CSCSCC(=O)OC/C1=C/CC[C@@]3(C)O[C@H]3[C@H]3OC(=O)C(=C)[C@@H]3CC1)=C\CC[C@@]1(C)O[C@@H]21 |  |  | 4.88 | 64.2 | 1.83 | 4.01 | 2.1 | 4.86 | 1.41 | 3.26 | 1.88 | 4.03 | 1.65 | 3.85 | 1.6 | 3.38 |
| CCCCON(OC(=O)c1ccc2ccccc2c1)C(=O)c1ccccc1 | 91 | > 100 | > 100 | > 100 | 90.2 | > 100 | > 100 | > 100 | 36.3 | > 100 | > 100 | > 100 | > 100 | > 100 | > 100 | > 100 |
| O=c1[nH]nnc2c1ncn2C1OC(CO)C(O)C1O (configuration not stated) | 1.39 | 83.3 | > 100 | > 100 | 14.5 | > 100 | 2.82 | > 100 | 10.6 | > 100 | 4.95 | > 100 | 38.3 | > 100 |  |  |
| OC(Cc1ccncc1)C(Cl)(Cl)Cl (configuration not stated) | 0.152 | 60.1 | > 100 | > 100 | 76.3 | > 100 | > 100 | > 100 | > 100 | > 100 | > 100 | > 100 | > 100 | > 100 | 86.3 | > 100 |
| COc1cc(C(O)CCBr)c(OC)cc1C (configuration not stated) |  | > 100 |  | > 89.4 |  | > 100 |  | > 100 |  | > 100 |  | 50.8 |  | > 100 |  | > 100 |
| O.O.[NH-]C1(C(=O)O)CCCC1.[NH-]C1(C(=O)O)CCCC1.[Ni+2] |  | > 100 | > 100 | > 100 |  | > 100 |  | > 100 |  | > 100 |  | > 100 |  | > 100 |  | > 100 |
| CCOC(=O)Nc1ccc2c(c1)/C(=N\NC(N)=S)c1ccccc1-2 | 4.24 | 16.1 | 5.43 | 36.7 | 2.95 | 12.6 | 4.33 | 23.1 | 5.91 | 32.6 | 2.03 | 4.77 | 5.94 | 65.7 | 4.29 | 41.2 |
| COc1cccc(N2CCN(CC(=O)N3CCN(c4nnc(-c5ccc(Cl)cc5)c(-c5ccc(Cl)cc5)n4)CC3)CC2)c1 | 3.84 | > 100 | 22 | 85.7 | 33.6 | > 100 | 24.5 | > 100 | 64.9 | > 100 | 31.3 | > 100 | 23.1 | > 100 | 12.3 | 93.7 |
| C=CCOc1cc(NC(=S)c2ccoc2C)ccc1OC |  | > 100 |  | > 100 |  | > 100 |  | > 100 |  | > 100 |  | > 100 |  | > 100 |  | > 100 |
| CCOC(=O)/C(C=Nc1ccc(-c2nc3ccccc3[nH]2)cc1)=C(/C)O | 18.5 | 44 | 11.4 | 30.5 | 15 | 31 | 12.1 | > 50 | 11.7 | 22.7 | 8.59 | 17.6 | 14.5 | > 50 | 11.9 | 38.9 |
| N=C1C(c2nc3ccccc3s2)=C(O)CN1c1ccc(F)c(Cl)c1 | > 100 | > 100 | 22.9 | 64.5 | 34.8 | > 100 | 17.5 | > 100 | 58.7 | > 100 | 16.8 | 52.7 | 34.6 | > 100 | 48.5 | > 100 |
| CCOC(=O)c1c(C)nc2c(c1N)CC(=O)N2Cc1ccc(OC)cc1 | > 100 | > 100 | 4.78 | > 100 | 4.26 | > 100 |  |  | > 100 | > 100 | 34.1 | > 100 | > 100 | > 100 | 7.91 | > 100 |
| CCN(Cc1cc(Nc2nc(C)cn3c(-c4cn[nH]c4)cnc23)sn1)C(C)(C)CO |  |  | 0.0227 | 0.0855 | 0.191 | 7.09 | 0.044 | 4.59 | < 0.0107 | 5.08 | 0.0387 | 12.8 | 0.0301 | 10.5 | 0.578 | 15.2 |
| CCNC(=O)C1CCCN1C(=O)C(CCCN=C(N)N)NC(=O)C(CC(C)C)NC(=O)C(CC(C)C)NC(=O)C(Cc1ccc(O)cc1)NC(=O)C(CO)NC(=O)C(Cc1c[nH]c2ccccc12)NC(=O)C(Cc1cnc[nH]1)NC(=O)C1CCC(=O)N1 (configuration not stated) ([pGlu]HWSYLLRP-NHEt; configuration not given here) | > 100 | > 100 | > 100 | > 100 | > 100 | > 100 | > 100 | > 100 | > 100 | > 100 |  |  | > 100 | > 100 | > 100 | > 100 |
| Cc1c[n+](=O)c2ccccc2n1[O-] |  |  |  | > 100 |  | > 100 |  | > 100 |  | > 100 |  | > 100 |  | > 100 |  | > 100 |
| C[C@]12C[C@H](CCCCCCNCCOC(=O)NCCCc3ccc(N(CCCl)CCCl)cc3)C3=C4CCC(=O)C=C4CCC3C1CC[C@@H]2O (some centres not stated) | 0.248 | 0.659 | 1.66 | 4.61 | 1.54 | 3.01 | 0.672 | 4.08 | 1.2 | 4.07 |  |  | 1.89 | 3.39 | 2.07 | 4.05 |
| CC1(C)C2CCC13C(=O)C1OC3(C2)C2C(=O)c3cc4ccccc4cc3C(=O)C12 (configuration not stated) | 4.89 | 26.7 | 53.7 | > 100 | 4.75 | 32.6 | 5.48 | > 100 |  |  |  |  | 19.3 | > 100 |  |  |
| Cc1cccc(/C=C/c2c(C(=O)/C=C/c3ccccc3)c(C)nc3ccccc23)c1 | 1.83 | 4.34 |  |  | 1.58 | 3.57 | 1.3 | 2.94 | 1.34 | 2.98 | 1.58 | 3.14 | 1.68 | 3.5 | 1.75 | 3.26 |
| O=C(c1ccccc1)c1ccccc1-c1ccccc1 |  |  | 1.58 | 10.2 | 4.46 | > 100 | 3.35 | 18.2 | 1.54 | > 100 | 4.43 | > 100 | 8.46 | > 100 | 4.22 | > 100 |
| N#Cc1ccc(OCc2nc(N)nc(N)c2-c2ccc(Cl)c(Cl)c2)cc1 | 0.554 | 24.4 | 2.65 | 41.3 |  |  | 0.377 | 14.1 | 0.484 | > 100 | 0.467 | 87.7 | 2.79 | > 100 |  |  |
| CC(C)Cn1cnc2c(SCc3ccc(Cl)cc3Cl)nc(N)nc21 |  |  |  | > 100 |  | > 100 |  | 35.4 |  | > 100 |  | > 100 |  | > 100 |  | > 100 |
